{"source": "PubChem BioAssay (NCI)", "assay_in_all_cases": "DTP human tumour cell line panel, 48 h", "key": {"786-0 renal": {"tested_on": "786-0 renal"}, "A549 NSCLC": {"tested_on": "A549 NSCLC"}, "ACHN renal": {"tested_on": "ACHN renal"}, "BT-549 breast": {"tested_on": "BT-549 breast"}, "CAKI-1 renal": {"tested_on": "CAKI-1 renal"}, "CCRF-CEM leukemia": {"tested_on": "CCRF-CEM leukemia"}, "COLO 205 colon": {"tested_on": "COLO 205 colon"}, "DU-145 prostate": {"tested_on": "DU-145 prostate"}, "EKVX NSCLC": {"tested_on": "EKVX NSCLC"}, "HCT-116 colon": {"tested_on": "HCT-116 colon"}, "HCT-15 colon": {"tested_on": "HCT-15 colon"}, "HL-60(TB) leukemia": {"tested_on": "HL-60(TB) leukemia"}, "HOP-62 NSCLC": {"tested_on": "HOP-62 NSCLC"}, "HS 578T breast": {"tested_on": "HS 578T breast"}, "HT29 colon": {"tested_on": "HT29 colon"}, "KM12 colon": {"tested_on": "KM12 colon"}, "LOX IMVI melanoma": {"tested_on": "LOX IMVI melanoma"}, "M14 melanoma": {"tested_on": "M14 melanoma"}, "MALME-3M melanoma": {"tested_on": "MALME-3M melanoma"}, "MCF7 breast": {"tested_on": "MCF7 breast"}, "MDA-MB-435": {"tested_on": "MDA-MB-435"}, "MDA-N": {"tested_on": "MDA-N"}, "MOLT-4 leukemia": {"tested_on": "MOLT-4 leukemia"}, "NCI-H226 lung": {"tested_on": "NCI-H226 lung"}, "NCI-H23 lung": {"tested_on": "NCI-H23 lung"}, "NCI-H522 lung": {"tested_on": "NCI-H522 lung"}, "NCI/ADR-RES ovarian": {"tested_on": "NCI/ADR-RES ovarian"}, "OVCAR-3 ovarian": {"tested_on": "OVCAR-3 ovarian"}, "OVCAR-4 ovarian": {"tested_on": "OVCAR-4 ovarian"}, "OVCAR-5 ovarian": {"tested_on": "OVCAR-5 ovarian"}, "OVCAR-8 ovarian": {"tested_on": "OVCAR-8 ovarian"}, "PC-3 prostate": {"tested_on": "PC-3 prostate"}, "RPMI-8226 leukemia": {"tested_on": "RPMI-8226 leukemia"}, "RXF 393 renal": {"tested_on": "RXF 393 renal"}, "SF-268 CNS": {"tested_on": "SF-268 CNS"}, "SF-295 CNS": {"tested_on": "SF-295 CNS"}, "SF-539 CNS": {"tested_on": "SF-539 CNS"}, "SK-MEL-2 melanoma": {"tested_on": "SK-MEL-2 melanoma"}, "SK-MEL-28 melanoma": {"tested_on": "SK-MEL-28 melanoma"}, "SK-MEL-5 melanoma": {"tested_on": "SK-MEL-5 melanoma"}, "SK-OV-3 ovarian": {"tested_on": "SK-OV-3 ovarian"}, "SN12C renal": {"tested_on": "SN12C renal"}, "SNB-19 CNS": {"tested_on": "SNB-19 CNS"}, "SNB-75 CNS": {"tested_on": "SNB-75 CNS"}, "SR leukemia": {"tested_on": "SR leukemia"}, "SW-620 colon": {"tested_on": "SW-620 colon"}, "T-47D breast": {"tested_on": "T-47D breast"}, "TK-10 renal": {"tested_on": "TK-10 renal"}, "U251 CNS": {"tested_on": "U251 CNS"}, "UACC-257 melanoma": {"tested_on": "UACC-257 melanoma"}, "UACC-62 melanoma": {"tested_on": "UACC-62 melanoma"}, "UO-31 renal": {"tested_on": "UO-31 renal"}, "A498 renal": {"tested_on": "A498 renal"}, "HCC-2998 colon": {"tested_on": "HCC-2998 colon"}, "HOP-92 NSCLC": {"tested_on": "HOP-92 NSCLC"}, "IGROV1 ovarian": {"tested_on": "IGROV1 ovarian"}, "K-562 leukemia": {"tested_on": "K-562 leukemia"}}, "note": "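Dose response: 5 concentrations. Exposure: 48 h. Format: 96-well plates. Endpoint: linear interpolation; highest concentration if not reached. TGI is the concentration that stops growth completely.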", "data": [{"smiles": "CC(=O)N(C)c1ccc(Nc2ccnc3ccc4nn(C)nc4c23)cc1", "values": [{"measurement": "TGI", "setting": "786-0 renal", "result": "> 100", "unit": "µM"}, {"measurement": "TGI", "setting": "A549 NSCLC", "result": 78, "unit": "µM"}, {"measurement": "TGI", "setting": "ACHN renal", "result": 30.2, "unit": "µM"}, {"measurement": "TGI", "setting": "BT-549 breast", "result": 69.4, "unit": "µM"}, {"measurement": "TGI", "setting": "CAKI-1 renal", "result": 30.5, "unit": "µM"}, {"measurement": "TGI", "setting": "CCRF-CEM leukemia", "result": 42, "unit": "µM"}, {"measurement": "TGI", "setting": "COLO 205 colon", "result": 45.2, "unit": "µM"}, {"measurement": "TGI", "setting": "DU-145 prostate", "result": 92.2, "unit": "µM"}, {"measurement": "TGI", "setting": "EKVX NSCLC", "result": 76.1, "unit": "µM"}, {"measurement": "TGI", "setting": "HCT-116 colon", "result": 53.1, "unit": "µM"}, {"measurement": "TGI", "setting": "HCT-15 colon", "result": 64.5, "unit": "µM"}, {"measurement": "TGI", "setting": "HL-60(TB) leukemia", "result": 38.8, "unit": "µM"}, {"measurement": "TGI", "setting": "HOP-62 NSCLC", "result": 84.3, "unit": "µM"}, {"measurement": "TGI", "setting": "HS 578T breast", "result": 53.2, "unit": "µM"}, {"measurement": "TGI", "setting": "HT29 colon", "result": "> 100", "unit": "µM"}, {"measurement": "TGI", "setting": "KM12 colon", "result": 76.2, "unit": "µM"}, {"measurement": "TGI", "setting": "LOX IMVI melanoma", "result": 30.6, "unit": "µM"}, {"measurement": "TGI", "setting": "M14 melanoma", "result": "> 100", "unit": "µM"}, {"measurement": "TGI", "setting": "MALME-3M melanoma", "result": 39.6, "unit": "µM"}, {"measurement": "TGI", "setting": "MCF7 breast", "result": 46.6, "unit": "µM"}, {"measurement": "TGI", "setting": "MDA-MB-435", "result": "> 100", "unit": "µM"}, {"measurement": "TGI", "setting": "MDA-N", "result": "> 100", "unit": "µM"}, {"measurement": "TGI", "setting": "MOLT-4 leukemia", "result": 58, "unit": "µM"}, {"measurement": "TGI", "setting": "NCI-H226 lung", "result": 34.3, "unit": "µM"}, {"measurement": "TGI", "setting": "NCI-H23 lung", "result": 82.1, "unit": "µM"}, {"measurement": "TGI", "setting": "NCI-H522 lung", "result": 41.2, "unit": "µM"}, {"measurement": "TGI", "setting": "NCI/ADR-RES ovarian", "result": "> 100", "unit": "µM"}, {"measurement": "TGI", "setting": "OVCAR-3 ovarian", "result": 50, "unit": "µM"}, {"measurement": "TGI", "setting": "OVCAR-4 ovarian", "result": "> 100", "unit": "µM"}, {"measurement": "TGI", "setting": "OVCAR-5 ovarian", "result": 94.1, "unit": "µM"}, {"measurement": "TGI", "setting": "OVCAR-8 ovarian", "result": "> 100", "unit": "µM"}, {"measurement": "TGI", "setting": "PC-3 prostate", "result": "> 100", "unit": "µM"}, {"measurement": "TGI", "setting": "RPMI-8226 leukemia", "result": 46.9, "unit": "µM"}, {"measurement": "TGI", "setting": "RXF 393 renal", "result": 48.1, "unit": "µM"}, {"measurement": "TGI", "setting": "SF-268 CNS", "result": "> 100", "unit": "µM"}, {"measurement": "TGI", "setting": "SF-295 CNS", "result": 59, "unit": "µM"}, {"measurement": "TGI", "setting": "SF-539 CNS", "result": 46.4, "unit": "µM"}, {"measurement": "TGI", "setting": "SK-MEL-2 melanoma", "result": 45.7, "unit": "µM"}, {"measurement": "TGI", "setting": "SK-MEL-28 melanoma", "result": 73.1, "unit": "µM"}, {"measurement": "TGI", "setting": "SK-MEL-5 melanoma", "result": 37.6, "unit": "µM"}, {"measurement": "TGI", "setting": "SK-OV-3 ovarian", "result": 47.6, "unit": "µM"}, {"measurement": "TGI", "setting": "SN12C renal", "result": "> 100", "unit": "µM"}, {"measurement": "TGI", "setting": "SNB-19 CNS", "result": "> 100", "unit": "µM"}, {"measurement": "TGI", "setting": "SNB-75 CNS", "result": "> 100", "unit": "µM"}, {"measurement": "TGI", "setting": "SR leukemia", "result": 77.1, "unit": "µM"}, {"measurement": "TGI", "setting": "SW-620 colon", "result": "> 100", "unit": "µM"}, {"measurement": "TGI", "setting": "T-47D breast", "result": 76.1, "unit": "µM"}, {"measurement": "TGI", "setting": "TK-10 renal", "result": 70.2, "unit": "µM"}, {"measurement": "TGI", "setting": "U251 CNS", "result": "> 100", "unit": "µM"}, {"measurement": "TGI", "setting": "UACC-257 melanoma", "result": 58.3, "unit": "µM"}, {"measurement": "TGI", "setting": "UACC-62 melanoma", "result": 37, "unit": "µM"}, {"measurement": "TGI", "setting": "UO-31 renal", "result": 29.2, "unit": "µM"}]}, {"smiles": "CN(C)c1ccc(/C=c2/c3ccccc3n3c2cc(-c2ccccc2)[n+]3C)cc1", "values": [{"measurement": "TGI", "setting": "786-0 renal", "result": 1.34, "unit": "µM"}, {"measurement": "TGI", "setting": "A498 renal", "result": 4.38, "unit": "µM"}, {"measurement": "TGI", "setting": "A549 NSCLC", "result": 2.04, "unit": "µM"}, {"measurement": "TGI", "setting": "ACHN renal", "result": 2.33, "unit": "µM"}, {"measurement": "TGI", "setting": "CAKI-1 renal", "result": 7.65, "unit": "µM"}, {"measurement": "TGI", "setting": "DU-145 prostate", "result": 1.92, "unit": "µM"}, {"measurement": "TGI", "setting": "HCC-2998 colon", "result": "> 100", "unit": "µM"}, {"measurement": "TGI", "setting": "HCT-116 colon", "result": 1.32, "unit": "µM"}, {"measurement": "TGI", "setting": "HCT-15 colon", "result": 3.06, "unit": "µM"}, {"measurement": "TGI", "setting": "HL-60(TB) leukemia", "result": 0.123, "unit": "µM"}, {"measurement": "TGI", "setting": "HOP-62 NSCLC", "result": 1.12, "unit": "µM"}, {"measurement": "TGI", "setting": "HOP-92 NSCLC", "result": 1.01, "unit": "µM"}, {"measurement": "TGI", "setting": "HT29 colon", "result": 0.908, "unit": "µM"}, {"measurement": "TGI", "setting": "IGROV1 ovarian", "result": 0.819, "unit": "µM"}, {"measurement": "TGI", "setting": "K-562 leukemia", "result": "> 100", "unit": "µM"}, {"measurement": "TGI", "setting": "KM12 colon", "result": 0.694, "unit": "µM"}, {"measurement": "TGI", "setting": "M14 melanoma", "result": 1.44, "unit": "µM"}, {"measurement": "TGI", "setting": "MDA-MB-435", "result": 1.12, "unit": "µM"}, {"measurement": "TGI", "setting": "MDA-N", "result": 1.22, "unit": "µM"}, {"measurement": "TGI", "setting": "NCI-H226 lung", "result": 1.07, "unit": "µM"}, {"measurement": "TGI", "setting": "NCI/ADR-RES ovarian", "result": "> 100", "unit": "µM"}, {"measurement": "TGI", "setting": "OVCAR-4 ovarian", "result": 2.1, "unit": "µM"}, {"measurement": "TGI", "setting": "OVCAR-5 ovarian", "result": 2.19, "unit": "µM"}, {"measurement": "TGI", "setting": "OVCAR-8 ovarian", "result": 0.567, "unit": "µM"}, {"measurement": "TGI", "setting": "PC-3 prostate", "result": 1.04, "unit": "µM"}, {"measurement": "TGI", "setting": "RPMI-8226 leukemia", "result": 0.488, "unit": "µM"}, {"measurement": "TGI", "setting": "SF-268 CNS", "result": 1.08, "unit": "µM"}, {"measurement": "TGI", "setting": "SK-MEL-2 melanoma", "result": 0.573, "unit": "µM"}, {"measurement": "TGI", "setting": "SK-MEL-28 melanoma", "result": 1.87, "unit": "µM"}, {"measurement": "TGI", "setting": "SK-MEL-5 melanoma", "result": 0.38, "unit": "µM"}, {"measurement": "TGI", "setting": "SK-OV-3 ovarian", "result": 2, "unit": "µM"}, {"measurement": "TGI", "setting": "SNB-19 CNS", "result": 1.28, "unit": "µM"}, {"measurement": "TGI", "setting": "SR leukemia", "result": 0.658, "unit": "µM"}, {"measurement": "TGI", "setting": "TK-10 renal", "result": 4.53, "unit": "µM"}, {"measurement": "TGI", "setting": "U251 CNS", "result": 1.15, "unit": "µM"}, {"measurement": "TGI", "setting": "UACC-257 melanoma", "result": 1.88, "unit": "µM"}, {"measurement": "TGI", "setting": "UO-31 renal", "result": 2.35, "unit": "µM"}]}]}
